Data taken from patent publication US7317115B2, “Mandelates salts of substituted tetracyclic tetrahydrofuran derivatives” (Janssen Pharmaceutica, N.V., priority 2001, dated 2008).
“Also recorded” adds a separate entry of the source.

Experiments:
Format in all cases: physicochemical
[1] = Crystallographic stability (TGA, DSC, IR after storage); on IR: key: ~Ref: identical with reference
Experimental: The stability of the crystal structure of the salt is studied after storage of the compounds for a period of two weeks at room temperature (RT) under either 5%, 75% and 25° C./60% relative humidity (RH). The samples are analyzed with thermogravimetry (TGA), differential scanning calorimetry (DSC) and infrared spectroscopy (IR).

[2] = Adsorption and desorption of water; settings: 25° C., different relative humidity; listed as tartrate salt
Experimental: The adsorption and desorption of water at 25° C. at different conditions of relative humidity is investigated on an amount of ±10 mg of each salt. The weight change as a function of relative humidity is registered.

[3] = Chemical stability (HPLC and visual inspection after storage); settings: for HPLC Sum of impurities: in % (unit assumed)
Experimental: In the chemical stability test program the salts are stored for periods of 2, 4 and 8 weeks under different conditions. These conditions are 40° C./75% RH, 50° C., daylight, RT/5% RH, RT/75% RH, 25° C./60% RH and artificial light. The mandelate salt and the ditoluoyltartrate salt are also stored 8 hours in 0.3 da ICH light. The compounds are analyzed after storage by HPLC and by visual inspection.

Appearance ([1]; 0 days): white
DSC Max ([1]; 0 days): 158.8 °C
DSC ΔH ([1]; 0 days): 85.9 J/g
TGA <100° C. ([1]; 0 days): 0%
Appearance ([1]; two weeks, RT/56% RH): white
DSC Max ([1]; two weeks, RT/56% RH): 159.0 °C
DSC ΔH ([1]; two weeks, RT/56% RH): 86.2 J/g
IR ([1]; two weeks, RT/56% RH): ~Ref
TGA <100° C. ([1]; two weeks, RT/56% RH): 0.1%
Appearance ([1]; two weeks, RT/75% RH): white
DSC Max ([1]; two weeks, RT/75% RH): 159.0 °C
DSC ΔH ([1]; two weeks, RT/75% RH): 85.5 J/g
TGA <100° C. ([1]; two weeks, RT/75% RH): 0%
Appearance ([1]; two weeks, RT/<5% RH): white
DSC Max ([1]; two weeks, RT/<5% RH): 160.3 °C
DSC ΔH ([1]; two weeks, RT/<5% RH): 86.4 J/g
TGA <100° C. ([1]; two weeks, RT/<5% RH): 0%
Appearance ([3]; 25° C./60% RH, 4 weeks): white
HPLC Sum of impurities ([3]; 25° C./60% RH, 4 weeks): 0.75
Appearance ([3]; 25° C./60% RH, 8 weeks): white
HPLC Sum of impurities ([3]; 25° C./60% RH, 8 weeks): 0.77
Appearance ([3]; 40° C./75% RH, 2 weeks): white
HPLC Sum of impurities ([3]; 40° C./75% RH, 2 weeks): 0.72
Appearance ([3]; 40° C./75% RH, 4 weeks): white
HPLC Sum of impurities ([3]; 40° C./75% RH, 4 weeks): 0.83
Appearance ([3]; 40° C./75% RH, 8 weeks): almost white
HPLC Sum of impurities ([3]; 40° C./75% RH, 8 weeks): 0.93
Appearance ([3]; 50° C., 2 weeks): white
HPLC Sum of impurities ([3]; 50° C., 2 weeks): 0.72
Appearance ([3]; 50° C., 4 weeks): white
HPLC Sum of impurities ([3]; 50° C., 4 weeks): 0.77
Appearance ([3]; 50° C., 8 weeks): almost white
HPLC Sum of impurities ([3]; 50° C., 8 weeks): 0.79
Appearance ([3]; Artificial light (2 weeks)): white
HPLC Sum of impurities ([3]; Artificial light (2 weeks)): 0.79
Appearance ([3]; Daylight, 2 weeks): white
HPLC Sum of impurities ([3]; Daylight, 2 weeks): 0.75
Appearance ([3]; Daylight, 4 weeks): almost
HPLC Sum of impurities ([3]; Daylight, 4 weeks): 0.85
Appearance ([3]; Daylight, 8 weeks): slightly
HPLC Sum of impurities ([3]; Daylight, 8 weeks): 0.91
Appearance ([3]; RT/75% RH, 4 weeks): white
HPLC Sum of impurities ([3]; RT/75% RH, 4 weeks): 0.72
Appearance ([3]; RT/75% RH, 8 weeks): white
HPLC Sum of impurities ([3]; RT/75% RH, 8 weeks): 0.80
Appearance ([3]; RT/<5% RH, 4 weeks): white
HPLC Sum of impurities ([3]; RT/<5% RH, 4 weeks): 0.73
Appearance ([3]; RT/<5% RH, 8 weeks): white
HPLC Sum of impurities ([3]; RT/<5% RH, 8 weeks): 0.75
Appearance ([3]; Reference (2 weeks)): white
HPLC Sum of impurities ([3]; Reference (2 weeks)): 0.72
Substance: B-(2α,3aα,12bβ)-11-fluoro-3,3a,8,12b-tetrahydro-N-methyl-2H-dibenzo-[3,4:6,7]cyclohepta[1,2-b]furan-2 methanamine [Tartrate]
crystallographic stability ([1]; storage two weeks under different relative humidities, listed as tartrate salt): crystallographic stable; also recorded: crystallographically stable
water adsorption/desorption behaviour (weight change as a function of relative humidity) [2]: less stable but the weight change as a function of the relative humidity is very small; also recorded: good adsorption desorption profile
chemical stability ([3]; storage 2, 4 and 8 weeks under different conditions, listed as tartrate salt): showed a sensitivity towards 40° C./70% RH and light; also recorded: shows sensitivity towards higher humidities and light
